Nine compounds from patent US8058468B2, “Carbamate antibiotics” (Nederlandse Organisatie Voor …, priority 2005, dated 2011) can be followed below.

The test system of data set [1] is multiple strains of S. aureus. Kind of data set: MIC test on multiple strains of S. aureus. Conditions: for MIC 50 / MIC 90: 59-60 tested S. aureus strains; for Range MIC (lowest-highest): highest: highest value over 59-60 tested S. aureus strains; for Range MIC (lowest-highest): lowest: lowest value over 59-60 tested S. aureus strains. It is filed as cell-based, Staphylococcus aureus. As to the method: MIC test were performed according to standard methodology: M7-A6-“Methods for Dilution Antimicrobial Susceptibility Tests for Bacteria That Grow Aerobically”; Approved Standard, Sixth Edition Clinical and Laboratory Standards Institute 2005 (CLSI/formerly NCCLS). The MIC values are expressed as a range between the lowest value and the highest value found in these experiments. Both the average MIC50 and MIC90 are indicated in bold.

For another data set, the system named is S. aureus MW2. Kind of data set: MIC test (CLSI M7-A6), single strain. It is filed as cell-based. As to conditions: Staphylococcus aureus. On the procedure: (§1) MIC test were performed according to standard methodology: M7-A6-“Methods for Dilution Antimicrobial Susceptibility Tests for Bacteria That Grow Aerobically”; Approved Standard, Sixth Edition Clinical and Laboratory Standards Institute 2005 (CLSI/formerly NCCLS).
(§2) Table 2 lists the results of 3 different compounds according to Formula (I) on single strains of S. aureus as MIC values expressed in micrograms per milliliter.

The next data set has as its system S. aureus N315. Kind of data set: MIC test (CLSI M7-A6), single strain. It is filed as cell-based. As to conditions: Staphylococcus aureus. As to the method:
as §1, §2

Another data set deals with S. aureus ATCC 29213. Kind of data set: MIC test (CLSI M7-A6), single strain. Conditions: Staphylococcus aureus, ATCC29213; single strain ATCC 29213. It is filed as cell-based. On the procedure:
as §1, §2

The subject of a further data set is S. aureus ATCC6538. Kind of data set: Further MIC tests, performed as in Example 1. It is filed as cell-based. As to conditions: Staphylococcus aureus. As to the method:
as §1
Further MIC tests, performed as in Example 1, were performed on several of the above synthesized compounds.

The nature of data set [2]: Observation scoring for adverse side effects in infected treated mice. It is filed as in vivo, mouse. Conditions: all animals. As to the method: (§3) The purpose of this study was to investigate the antibiotic efficacy of different doses of compound BAS00674552 against a local infection with MRSA 2141 in the mouse. Thirty mice were treated intravenously with 0.5, 5.0 or 50 mg/kg body weight, respectively. The observation period was three days. Outgrowth of the infection was used to establish drug efficacy.

The test system of the next data set is MRSA 2141. Kind of data set: Local thigh muscle infection with MRSA 2141 in the mouse, CFU outgrowth. It is filed as in vivo. As to conditions: for Log reduction of MRSA 2141 CFU in thigh muscle: vs vehicle; for Reduction of bacterial outgrowth against the untreated group: P≦0.01. On the procedure: as §3
The test substances were administered as a solution in dimethylsulfoxide (DMSO). The test substance was administered as 20 μl injections per mouse at all dose levels. Vancomycin was used as positive control and injected intravenously as a 10 mg/ml solution in DMSO (20 μl per mouse).
The study was performed according to Lab-Sop-Amp-Anim-002 and Lab-Sop-Amp-Bac-003. In short, mice were injected with 11E05 MRSA bacteria, strain 2141 in the right thigh muscle, followed one day later by an i.v. injection of the test compound, vancomycin or vehicle in the tail vein. 24 hours later mice were sacrificed, blood was collected by heart puncture and the right thigh muscle was removed. Plasma was prepared from blood samples and stored at −80°±10° C. for possible future analysis. Thigh muscles were weighted and homogenized using an Ultra-Turrax® and dilutions of the homogenate were prepared in saline. Limiting dilutions were plated onto agar plates and two days later the number of MRSA 2141 CFU were determined for each individual mouse as an indication of bactericidal activity of the compound. Additionally, tests were performed to determine if the bacteria used are still oxacillin resistant Staphylococcus aureus. This was done before injection and on pooled thigh muscle isolates per group. For this purpose Staphaurex® (Remel Europe Ltd., Crossways, UK) and ORSAB®+supplements (Oxoid Ltd., Basingstoke, UK) were used. In vivo antibiotic activity is determined by a CFU reduction of >90% (1 log reduction) in comparison to the negative control (vehicle only).
The study was comprised five groups of 10 females each.

Setting [3] is: duplo (duplicate determination), read-out: MIC-value S. aureus ATCC6538 duplo.
[4] abbreviates: first determination, read-out: MIC-value S. aureus ATCC6538.

Each structure is given as a SMILES string. Values after ≈ are worked out from the molar mass of the structure shown. Like-named read-outs stand apart in the source and are kept apart here.

Usually MIC stands for the lowest concentration that inhibits growth of the organism. With `CCOC(=O)NCCOC(=O)Nc1ccc(Cl)c(Cl)c1` [BAS 00212008, (3,4-dichloro-phenyl)-carbamic acid 2-ethoxycarbonylamino-ethyl ester], in data set [1], the “MIC 50” value was more than 32 microgram/milliliter, the “MIC 90” value was more than 32 microgram/milliliter, the “Range MIC (lowest-highest): highest” value was more than 32 microgram/milliliter and the “Range MIC (lowest-highest): lowest” value is on record as more than 32 microgram/milliliter. Further, inhibition of growth against S. aureus MW2 (MIC) required 16 µg/mL (≈ 49.8 µM). Also, the MIC in the data set on S. aureus N315 is 8 µg/mL (≈ 24.9 µM). Further, the MIC against S. aureus ATCC 29213 was 16 µg/mL (≈ 49.8 µM).
For `CCC(COC(=O)Nc1ccc(Cl)c(Cl)c1)NC(=O)OC(C)C` (centres unmarked) [BAS 00674544, (3,4-dichloro-phenyl)-carbamic acid 2-isopropoxycarbonylamino-butyl ester], in data set [1], the “MIC 50” value is 16 microgram/milliliter, the “MIC 90” value came out at 32 microgram/milliliter, the “Range MIC (lowest-highest): highest” value is more than 32 microgram/milliliter and the “Range MIC (lowest-highest): lowest” value worked out at 8 microgram/milliliter. In addition, the MIC with S. aureus MW2 is 8 µg/mL (≈ 22 µM). The lowest concentration to inhibit growth against S. aureus N315 (MIC) was 8 µg/mL (≈ 22 µM). The compound further registered an MIC in the data set on S. aureus ATCC 29213 of 8 µg/mL (≈ 22 µM).
As to `CC(C)COC(=O)NCC(C)OC(=O)Nc1ccc(Cl)c(Cl)c1` (centres unmarked) [BAS 00674552, (3,4-dichloro-phenyl)-carbamic acid 2-isobutoxycarbonylamino-1-methyl-ethyl ester], the MIC in the data set on S. aureus ATCC6538 (setting [3]) stood at 6.25 µg/mL (≈ 17.2 µM); in the data set on S. aureus ATCC6538 (setting [4]), 25 µg/mL (≈ 68.8 µM); in the data set with S. aureus MW2, 4 µg/mL (≈ 11 µM); with S. aureus N315 it was 4 µg/mL (≈ 11 µM); with S. aureus ATCC 29213 it was 8 µg/mL (≈ 22 µM). Also, the “Score on observation scoring sheets (DEC guidelines)” value in data set [2] was less than 8. Besides, the Adverse side effects result in data set [2] (single i.v. dose 0.5-50 mg/kg) is on record as “no signs of adverse side effects were observed”. The “MIC 50” value in data set [1] turned out to be 8 microgram/milliliter. Moreover, in data set [1], the “MIC 90” value is listed as 16 microgram/milliliter. In addition, the “Range MIC (lowest-highest): highest” value in data set [1] was more than 32 microgram/milliliter. Also, in data set [1], the “Range MIC (lowest-highest): lowest” value is recorded as 4 microgram/milliliter. Moreover, the “Log reduction of MRSA 2141 CFU in thigh muscle” value with MRSA 2141 (5 mg/kg single i.v. dose, 24 h after dosing) was “Approximately 2 Log”; in the data set with MRSA 2141 (50 mg/kg single i.v. dose, 24 h after dosing), “Approximately 2 Log”. For the same compound, the “Reduction of bacterial outgrowth against the untreated group” value in the data set with MRSA 2141 (5 mg/kg) and in the data set with MRSA 2141 (50 mg/kg) was “significant reduction of bacterial outgrowth” each time. For the same compound, the “Efficacy against local MRSA 2141 infection (statistical analysis)” value in the data set on MRSA 2141 (all doses, P≦0.001) was “effective”.
Consider `Cc1ccc(NC(=O)OC(C)CNC(=O)OCC(C)C)cc1` (centres unmarked) [TAC 1_005, p-tolyl-carbamic acid 2-isobutoxycarbonylamino-1-methyl-ethyl ester], for which the MIC in the data set on S. aureus ATCC6538 (setting [3]) was 50 µg/mL (≈ 162 µM); in the data set with S. aureus ATCC6538 (setting [4]), 100 µg/mL (≈ 324 µM).
The corresponding values for `CC(C)COC(=O)NCC(C)OC(=O)Nc1ccc(C(F)(F)F)cc1` (centres unmarked) [TAC 1_007, (4-trifluoromethyl-phenyl)-carbamic acid 2-isobutoxycarbonylamino-1-methyl-ethyl ester] are 25 µg/mL (≈ 69 µM) and 12.5 µg/mL (≈ 34.5 µM).
In the same order, the values of `NC(=O)OCCOC(=O)Nc1ccc(Cl)c(Cl)c1` [TAC 1_009, (3,4-dichloro-phenyl)-carbamic acid 2-carbamoyloxy-ethyl ester] are 50 µg/mL (≈ 171 µM) and 100 µg/mL (≈ 341 µM).
The corresponding values for `CNC(=O)OCCOC(=O)Nc1ccc(Cl)c(Cl)c1` [TAC 1_010, (3,4-dichloro-phenyl)-carbamic acid 2-methylcarbamoyloxy-ethyl ester] are 50 µg/mL (≈ 163 µM) and 100 µg/mL (≈ 326 µM).
On to `CCNC(=O)OCCOC(=O)Nc1ccc(Cl)c(Cl)c1` [TAC 1_011, (3,4-dichloro-phenyl)-carbamic acid 2-ethylcarbamoyloxy-ethyl ester], for which the MIC in the data set with S. aureus ATCC6538 (setting [3]) and in the data set with S. aureus ATCC6538 (setting [4]) was 100 µg/mL (≈ 311 µM) each time.
Take `CN[C@H](CC(C)C)C(=O)N[C@H]1C(=O)N[C@@H](CC(N)=O)C(=O)N[C@H]2C(=O)N[C@H]3C(=O)N[C@H](C(=O)N[C@H](C(=O)O)c4cc(O)cc(O)c4-c4cc3ccc4O)[C@H](O)c3ccc(c(Cl)c3)Oc3cc2cc(c3O[C@@H]2O[C@H](CO)[C@@H](O)[C@H](O)[C@H]2O[C@H]2C[C@](C)(N)[C@H](O)[C@H](C)O2)Oc2ccc(cc2Cl)[C@H]1O` [vancomycin, Vancomycin, reference compound]: the “Log reduction of MRSA 2141 CFU in thigh muscle” value in the data set on MRSA 2141 (positive control, 10 mg/ml i.v., 20 μl per mouse (10 mg/kg)) was “Over 1 Log”.
